From patent US20250034216A1, “STEREOSELECTIVE COVALENT LIGANDS FOR ONCOGENIC AND IMMUNOLOGICAL PROTEINS” (The Scripps Research Institute, priority 2021, published 2025)

Columns and labels:
Test in all cases: IA-DTB cysteine engagement
Assay type in all cases: binding
Details in all cases: 22Rv1 cells, 20 μM probe, 1 h, relative to DMSO
[1] = molecular target: T1, EPHX4_C287 (Homo sapiens, UniProt Q8IUS5)
T1 construct: endogenous in cells; host or cells: 22Rv1
T1 sequence (Q8IUS5 1-362): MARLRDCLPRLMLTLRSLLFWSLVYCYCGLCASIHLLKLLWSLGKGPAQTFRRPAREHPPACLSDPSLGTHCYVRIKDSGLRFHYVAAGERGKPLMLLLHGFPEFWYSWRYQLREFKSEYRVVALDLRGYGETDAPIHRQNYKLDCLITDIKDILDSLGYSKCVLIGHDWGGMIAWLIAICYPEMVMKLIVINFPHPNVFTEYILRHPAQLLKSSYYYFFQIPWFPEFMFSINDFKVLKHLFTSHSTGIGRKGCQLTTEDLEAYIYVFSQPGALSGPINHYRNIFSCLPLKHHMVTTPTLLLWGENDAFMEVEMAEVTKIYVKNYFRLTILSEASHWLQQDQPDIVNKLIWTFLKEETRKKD
Outline: (§1)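 Cells were treated in situ with electrophilic probes, then lysed, and the lysates (2 mg/mL protein) were labeled with IA-DTB for 1 h at ambient temperature. After reduction, alkylation and trypsin digestion, labeled peptides were streptavidin-enriched, TMT-labeled and fractionated. Engagement ratios are probe vs DMSO reporter intensities, averaged across replicates.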

[2] = molecular target: T2, GPAT4_C325 (Homo sapiens, UniProt Q86UL3)
T2 construct: endogenous in cells; host or cells: 22Rv1
T2 sequence (Q86UL3 38-456): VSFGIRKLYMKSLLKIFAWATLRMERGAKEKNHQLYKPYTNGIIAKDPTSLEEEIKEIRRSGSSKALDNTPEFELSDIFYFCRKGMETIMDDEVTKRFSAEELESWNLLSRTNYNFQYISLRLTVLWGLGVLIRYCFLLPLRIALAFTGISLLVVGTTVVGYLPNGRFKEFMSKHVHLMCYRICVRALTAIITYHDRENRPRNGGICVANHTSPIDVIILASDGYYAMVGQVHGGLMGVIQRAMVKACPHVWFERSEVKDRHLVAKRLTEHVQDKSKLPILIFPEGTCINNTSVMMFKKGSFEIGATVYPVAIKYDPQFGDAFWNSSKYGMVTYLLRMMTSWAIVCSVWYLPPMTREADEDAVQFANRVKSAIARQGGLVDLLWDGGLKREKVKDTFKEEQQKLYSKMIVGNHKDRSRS
Outline: as §1

[3] = molecular target: T3, TRPM4_C758 (Homo sapiens, UniProt Q8TD43)
T3 construct: endogenous in cells; host or cells: 22Rv1
T3 sequence (Q8TD43 whole entry): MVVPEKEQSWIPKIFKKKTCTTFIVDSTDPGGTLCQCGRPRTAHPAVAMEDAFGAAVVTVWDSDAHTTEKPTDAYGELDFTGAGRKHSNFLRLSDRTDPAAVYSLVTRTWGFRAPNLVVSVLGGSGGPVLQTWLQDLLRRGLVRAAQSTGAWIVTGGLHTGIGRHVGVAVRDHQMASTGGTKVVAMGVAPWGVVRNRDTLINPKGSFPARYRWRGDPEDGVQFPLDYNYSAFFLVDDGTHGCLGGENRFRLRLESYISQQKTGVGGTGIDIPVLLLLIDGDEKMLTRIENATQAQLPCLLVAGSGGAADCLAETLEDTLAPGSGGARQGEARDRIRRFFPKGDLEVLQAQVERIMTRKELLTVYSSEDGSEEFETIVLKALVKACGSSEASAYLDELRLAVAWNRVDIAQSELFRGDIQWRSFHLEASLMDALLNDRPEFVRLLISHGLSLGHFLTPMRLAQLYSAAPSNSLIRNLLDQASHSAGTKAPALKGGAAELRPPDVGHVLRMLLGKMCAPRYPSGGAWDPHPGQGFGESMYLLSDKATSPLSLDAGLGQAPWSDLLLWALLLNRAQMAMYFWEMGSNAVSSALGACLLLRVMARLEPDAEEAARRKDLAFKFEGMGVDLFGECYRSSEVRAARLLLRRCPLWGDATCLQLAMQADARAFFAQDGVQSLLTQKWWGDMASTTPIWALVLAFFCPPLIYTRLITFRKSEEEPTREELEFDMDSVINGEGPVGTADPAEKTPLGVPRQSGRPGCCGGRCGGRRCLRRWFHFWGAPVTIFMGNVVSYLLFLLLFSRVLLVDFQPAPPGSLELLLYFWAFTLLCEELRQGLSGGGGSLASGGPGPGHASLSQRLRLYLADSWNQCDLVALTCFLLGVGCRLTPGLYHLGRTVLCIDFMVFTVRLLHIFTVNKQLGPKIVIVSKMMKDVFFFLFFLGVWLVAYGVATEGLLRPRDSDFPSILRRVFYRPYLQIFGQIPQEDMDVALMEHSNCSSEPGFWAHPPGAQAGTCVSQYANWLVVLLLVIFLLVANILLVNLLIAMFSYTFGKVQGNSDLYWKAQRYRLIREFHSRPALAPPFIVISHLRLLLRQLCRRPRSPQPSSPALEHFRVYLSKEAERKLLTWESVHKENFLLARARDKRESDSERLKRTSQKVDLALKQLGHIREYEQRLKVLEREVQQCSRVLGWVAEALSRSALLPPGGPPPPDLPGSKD
Outline: as §1

[4] = molecular target: T4, HIRA_C673 (Homo sapiens, UniProt P54198)
T4 construct: endogenous in cells; host or cells: 22Rv1
T4 sequence (P54198 whole entry): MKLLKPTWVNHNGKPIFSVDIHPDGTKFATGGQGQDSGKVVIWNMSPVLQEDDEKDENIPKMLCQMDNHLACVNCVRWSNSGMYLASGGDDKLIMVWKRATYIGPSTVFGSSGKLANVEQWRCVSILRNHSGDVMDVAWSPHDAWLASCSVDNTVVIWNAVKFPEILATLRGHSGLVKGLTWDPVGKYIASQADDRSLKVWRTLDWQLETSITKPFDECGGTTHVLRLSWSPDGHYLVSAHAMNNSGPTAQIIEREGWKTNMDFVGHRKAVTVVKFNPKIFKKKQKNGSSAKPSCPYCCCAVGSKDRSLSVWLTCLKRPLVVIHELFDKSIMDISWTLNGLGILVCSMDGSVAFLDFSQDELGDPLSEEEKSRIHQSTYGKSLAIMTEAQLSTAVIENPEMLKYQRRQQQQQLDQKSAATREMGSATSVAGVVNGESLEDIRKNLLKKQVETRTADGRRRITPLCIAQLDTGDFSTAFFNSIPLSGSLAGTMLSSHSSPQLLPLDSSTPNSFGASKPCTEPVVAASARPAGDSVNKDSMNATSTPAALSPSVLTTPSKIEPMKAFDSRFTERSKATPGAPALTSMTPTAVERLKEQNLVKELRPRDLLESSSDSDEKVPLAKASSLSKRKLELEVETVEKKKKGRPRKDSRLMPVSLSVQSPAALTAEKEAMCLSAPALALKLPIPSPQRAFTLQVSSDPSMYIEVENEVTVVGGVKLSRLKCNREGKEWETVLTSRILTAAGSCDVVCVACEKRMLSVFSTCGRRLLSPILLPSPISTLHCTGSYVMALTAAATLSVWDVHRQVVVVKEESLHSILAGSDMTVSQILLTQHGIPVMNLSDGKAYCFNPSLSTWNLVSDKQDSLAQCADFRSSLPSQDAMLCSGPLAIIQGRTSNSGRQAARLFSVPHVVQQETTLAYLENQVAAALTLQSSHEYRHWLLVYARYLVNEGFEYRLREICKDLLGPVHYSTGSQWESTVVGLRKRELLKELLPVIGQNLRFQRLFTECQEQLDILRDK
Outline: as §1

[5] = molecular target: T5, LAPTM4A_C23 (Homo sapiens, UniProt Q15012)
T5 construct: endogenous in cells; host or cells: 22Rv1
Outline: as §1

[6] = molecular target: T6, PRXL2A_C88 (Homo sapiens, UniProt Q9BRX8)
T6 construct: endogenous in cells; host or cells: 22Rv1
T6 sequence (Q9BRX8 1-229): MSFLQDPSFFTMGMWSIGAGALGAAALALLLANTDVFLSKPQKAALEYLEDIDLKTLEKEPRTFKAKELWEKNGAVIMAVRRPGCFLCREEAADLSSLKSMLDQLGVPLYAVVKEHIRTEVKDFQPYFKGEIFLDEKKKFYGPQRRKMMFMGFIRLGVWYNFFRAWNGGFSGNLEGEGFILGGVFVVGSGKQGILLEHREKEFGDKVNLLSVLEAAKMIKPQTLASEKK
Outline: as §1

SMILES | % engagement EPHX4_C287 [1] [%] | % engagement GPAT4_C325 [2] [%] | % engagement TRPM4_C758 [3] [%] | % engagement HIRA_C673 [4] [%] | % engagement LAPTM4A_C23 [5] [%] | % engagement PRXL2A_C88 [6] [%]
C=CC(=O)N1C[C@@H](c2ccc(Br)cc2)[C@H]1C(=O)Nc1cccc2cccnc12 [MY-1A, (2S,3R)-1-acryloyl-3-(4-bromophenyl)-N-(quinolin-8-yl)azetidine-2-carboxamide] | 23.5 | 83.25 | 40.5 | −12 | 67 | 96.25
C=CC(=O)N1C[C@H](c2ccc(Br)cc2)[C@@H]1C(=O)Nc1cccc2cccnc12 [MY-1B, (2R,3S)-1-acryloyl-3-(4-bromophenyl)-N-(quinolin-8-yl)azetidine-2-carboxamide] | 44.5 | 80 | 54.5 | 3 | 54.5 | 97.25
C=CC(=O)N1C[C@H](c2ccc(Br)cc2)[C@H]1C(=O)Nc1cccc2cccnc12 [MY-3A, (2S,3S)-1-acryloyl-3-(4-bromophenyl)-N-(quinolin-8-yl)azetidine-2-carboxamide] | 28 | 67.25 | 29.5 | 11.5 | 48 | 95
C=CC(=O)N1C[C@H](c2ccc(Br)cc2)[C@H]1C(=O)Nc1cccc2cccnc12 [MY-3B, (2S,3S)-1-acryloyl-3-(4-bromophenyl)-N-(quinolin-8-yl)azetidine-2-carboxamide] | 86.5 | 93.75 | 73.5 | 73 | 72 | 97.25
